The test system of this test is MDA-MB-231 cells. The test is described as follows: MTT cell viability assay, MDA-MB-231. It counts as cell-based, human. Particulars: co-treatment with LYN-1604 for 24 h.

Experimental findings from publication PMC5433508 (Chemical Science, 2017) are described below.

SMILES strings stand for the structures.

Consider `CNC(=O)c1ccccc1Oc1nc(Nc2cc(OC)c(OC)c(OC)c2)ncc1Br` [SBI-0206965], for which the “effect on LYN-1604-induced cell death” value is reported as “decrease LYN-1604-induced cell death”.
